In patent publication US10363239B2, “Method for inhibiting growth of cancer cells” (Pain Therapeutics, Inc., priority 2013, dated 2019):
Like-named read-outs stand apart in the source and are kept apart here.

Tests used:
[1] = test system: mu opiate receptor (MOR); experiment: MOR agonist activity using [35S]GTPγS binding assay in striatal membranes; format: biochemical; conditions: Series B; for % DAMGO (0.1 μM) / % DAMGO (1 μM): relative to DAMGO; for % DAMGO + BFNA: 1 μM compound + β-FNA, relative to DAMGO + BFNA
Outline: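 Striatal membranes (200 μg) were preincubated 5 min at 30 °C in HEPES pH 7.5 with 100 mM NaCl, 1 mM MgCl2 and 0.5 nM [35S]GTPγS, then 5 min more with 0.1–10 μM compound. Gαo was immunoprecipitated and bound radioactivity counted by scintillation.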

[2] = target: FLNA pentapeptide of SEQ ID NO: 1 (Bn-VAKGL) (Homo sapiens, UniProt P21333); experiment: FITC-NLX-based FLNA screening assay (inhibition of FITC-naloxone binding to Bn-VAKGL on streptavidin plates); conditions: 10 nM FITC-NLX
[3] = 0.1 μM compound, [35S]GTPγS binding to Gαo, striatal membranes
[4] = 1 μM compound, [35S]GTPγS binding to Gαo, striatal membranes
[5] = read-out: Percent Binding Inhibition, FLNA-binding compound 0.01 μM
[6] = read-out: Percent Binding Inhibition, FLNA-binding compound 0.1 μM
[7] = read-out: Percent Binding Inhibition, FLNA-binding compound 1 μM
[8] = FLNA-binding compound 0.01 μM, read-out: Percent Binding Inhibition
[9] = FLNA-binding compound 0.1 μM, read-out: Percent Binding Inhibition
[10] = FLNA-binding compound 1 μM, read-out: Percent Binding Inhibition

| SMILES | % DAMGO (0.1 μM) ([1]; 0.1 μM compound) | MOR agonist activity, percent [35S]GTPγS binding at the stated compound concentration [1, 3] | MOR agonist activity, percent [35S]GTPγS binding at the stated compound concentration ([1]; 1 μM compound + 1 μM β-FNA) | % DAMGO + BFNA [1] | % DAMGO (1 μM) ([1]; 1 μM compound) | MOR agonist activity, percent [35S]GTPγS binding at the stated compound concentration [1, 4] | inhibition at 0.01 µM [2, 5] | inhibition at 0.1 µM [2, 6] | inhibition at 1 µM [2, 7] | inhibition at 0.01 µM [2, 8] | inhibition at 0.1 µM [2, 9] | inhibition at 1 µM [2, 10] |
| --- | --- | --- | --- | --- | --- | --- | --- | --- | --- | --- | --- | --- |
| COc1ccc(C(=O)CC2c3c(cc4c(c3OC)OCO4)CC[N+]2(C)C)c(O)c1 (stereo not drawn) [Compound B0033] | 77.6% | 149.3% | 41.9% | 95.4% | 69.2% | 188.9% | 42.1% | 46.8% | 49.4% | – | – | – |
| COc1cccc(CCC(=O)CC2c3c(cc4c(c3OC)OCO4)CC[N+]2(C)C)c1 (stereo not drawn) [Compound B0034] | 71.6% | 122.5% | 41.8% | 80.2% | 88.1% | 235.2% | 49.1% | 54.2% | 59.1% | – | – | – |
| COc1cc(OC)cc(C(=O)CC2c3c(cc4c(c3OC)OCO4)CC[N+]2(C)C)c1 (stereo not drawn) [Compound B0035] | 109.8% | 188.0% | 74.2% | 142.4% | 93.2% | 248.7% | 45.4% | 44.7% | 51% | – | – | – |
| COc1cccc(OC)c1CC(=O)CC1c2c(cc3c(c2OC)OCO3)CC[N+]1(C)C (stereo not drawn) [Compound B0036] | 39.2% | 61.4% | 65.1% | 199.7% | 52.1% | 120.6% | 46.6% | 52.8% | 62.1% | – | – | – |
| COc1cc(C(=O)CC2c3c(cc4c(c3OC)OCO4)CC[N+]2(C)C)cc(OC)c1OC (stereo not drawn) [Compound B0037] | 76.5% | 119.8% | 106.2% | 325.8% | 80.4% | 186.0% | 47.4% | 53% | 52.4% | – | – | – |
| COc1cccc(CC(=O)CC2c3c(cc4c(c3OC)OCO4)CC[N+]2(C)C)c1OC (stereo not drawn) [Compound B0038] | 94.2% | 147.5% | 117.1% | 359.2% | 88.7% | 205.3% | 41.2% | 50.1% | 57% | – | – | – |
| COCOc1ccc(CCC(=O)CC2c3c(cc4c(c3OC)OCO4)CC[N+]2(C)C)cc1 (stereo not drawn) [Compound B0040] | 93.2% | 146.0% | 55.3% | 169.6% | 105.1% | 243.3% | 40% | 53.1% | 57.1% | – | – | – |
| COCOc1ccc(C(=O)CC2c3c(cc4c(c3OC)OCO4)CC[N+]2(C)C)cc1C (stereo not drawn) [Compound B0041] | 39.3% | 61.6% | 41.9% | 128.5% | 47.2% | 109.3% | 44% | 46.8% | 52.8% | – | – | – |
| COc1ccc(CCC(=O)CC2c3c(cc4c(c3OC)OCO4)CC[N+]2(C)C)cc1OC (stereo not drawn) [Compound B0042] | 39.6% | 69.9% | 43.1% | 163.9% | 42.3% | 107.5% | 40.8% | 46.4% | 51.6% | – | – | – |
| COc1ccc(CCC(=O)CC2c3c(cc4c(c3OC)OCO4)CC[N+]2(C)C)c(OC)c1 (stereo not drawn) [Compound B0043] | 42.4% | 74.8% | 166.4% | 632.7% | 97.6% | 248.1% | 30.8% | 39.2% | 46.8% | – | – | – |
| COc1ccc(OC)c(CCC(=O)CC2c3c(cc4c(c3OC)OCO4)CC[N+]2(C)C)c1 (stereo not drawn) [Compound B0044] | 49.4% | 87.3% | 134.6% | 511.8% | 66.9% | 170.0% | 35.2% | 39.5% | 44.4% | – | – | – |
| COc1ccccc1CCC(=O)CC1c2c(cc3c(c2OC)OCO3)CC[N+]1(C)C (stereo not drawn) [Compound B0045] | 82.6% | 129.3% | 83.8% | 257.1% | 83.4% | 193.1% | 63.2% | 68.2% | 73.9% | – | – | – |
| COc1ccc(CCC(=O)CC2c3c(cc4c(c3OC)OCO4)CCN2C)cc1 (stereo not drawn) [Compound B0047] | 106.3% | 187.8% | 68.4% | 260.1% | 92.6% | 235.6% | – | – | – | 30.7% | 37.6% | 47.1% |
| COc1ccc(CCC(O)CC2c3c(cc4c(c3OC)OCO4)CCN2C)cc1 (stereo not drawn) [Compound B0048] | 104.8% | 185.1% | 78.5% | 298.5% | 87.8% | 223.4% | – | – | – | 34.7% | 41.9% | 43.9% |
| COc1ccc(CCC(O)CC2c3c(cc4c(c3OC)OCO4)CC[N+]2(C)C)cc1 (stereo not drawn) [Compound B0049] | 102.8% | 181.6% | 133.2% | 506.5% | 143.1% | 364.0% | 32.2% | 40.1% | 47.1% | – | – | – |
